As usually defined, the TGI is the reduction of tumour growth relative to the control group. One may read the inhibition as the share of the control response that was lost under treatment.

We go through seven compounds from ChEMBL document CHEMBL5226350, “NSAIDs: Old Acquaintance in the Pipeline for Cancer Treatment and Prevention─Structural Modulation, Mechanisms of Action, and Bright Future” (J Med Chem, 2021).

Assay [1] relates to HT-29. The assay can be described thus: Antitumor activity against human HT-29 cells xenografted in sc dosed mouse assessed as reduction in tumor volume measured after 10 days relative to control. Also noted: scale not given: the % may be the effect or the level left. The conditions noted are these: time 10 day. The format is functional. Background: A xenograft is tissue or cells of one species grown in another, often human tumour cells in immunodeficient mice.

The test system of assay [2] is HT-29. The assay can be described thus: Antitumor activity against human HT-29 cells xenografted in ip dosed mouse assessed as reduction in tumor volume measured after 21 days relative to control. The format is functional. Also noted: scale not given: the % may be the effect or the level left. The conditions noted are these: time 21 day.
The subject of assay [3] is HT-29. Kind of assay: Antitumor activity against human HT-29 cells expressing Trx-1 xenografted in sc dosed mouse in presence of DFMO by immunohistochemical staining based analysis relative to control. The format is functional.
Assay [4] relates to HT-29. Kind of assay: Antitumor activity against human HT-29 cells expressing Trx-1 xenografted in sc dosed mouse assessed as reduction in tumor volume in presence of DFMO by immunohistochemical staining based analysis relative to control. It counts as functional. Also noted: scale not given: the % may be the effect or the level left.
Assay [5] concerns HT-29. Kind of assay: Antitumor activity against human HT-29 cells xenografted in sc dosed Apc/Min mouse assessed as reduction in tumor growth in presence of DFMO relative to control. The format is functional.
Another assay deals with A549. Kind of assay: Antitumor activity against human A549 cells xenografted in ip dosed mouse assessed as tumor growth inhibition at 200 mg/kg measured after 6 weeks relative to control. It counts as functional. Also noted: scale not given: the % may be the effect or the level left.
Another assay concerns U-118-MG. The assay can be described thus: Antitumor activity against human U-118-MG cells xenografted in sc dosed BALB/c mouse assessed as tumor growth inhibition at 20 mg/kg measured after 29 days relative to control. The conditions noted are these: 696 h, time 29 day, read-out: TGI. The format is functional.
A further assay concerns Mus musculus. The assay can be described thus: Inhibition of pancreatitis-accelerated acinar-to-ductal metaplasia in C57Bl/6J mouse harboring Kras G12D mutant at 100 mg/kg ,po administered via gavage measured after 3 weeks in presence of cerulein relative to control. The conditions noted are these: 504 h. It counts as toxicity, organism-based.
A further assay has as its system PANC-1. The assay can be described thus: Antitumor activity against human PANC-1 cells xenografted in po dosed BALB/c mouse assessed as tumor growth inhibition measured after 30 days relative to control. The format is functional. The conditions noted are these: time 30 day.
In a further assay the test system is A-431. The assay can be described thus: Antitumor activity against human A-431 cells xenografted in sc dosed mouse assessed as tumor growth inhibition measured after 15 days in presence of diclofenac relative to control. It counts as functional. The conditions noted are these: time 15 day.

As to `O=C(CCCO[N+](=O)[O-])Oc1ccccc1C(=O)Oc1ccc(-c2cc(=S)ss2)cc1`, the Activity in the assay with HT-29 [1] is recorded as 85%.

For `CCOP(=O)(OCC)OCc1cccc(OC(=O)c2ccccc2OC(C)=O)c1`, the Activity in the assay on HT-29 [2] is listed as >60%. As to `CCOP(=O)(OCC)OCCCCOC(=O)CC1=C(C)/C(=C/c2ccc([S+](C)[O-])cc2)c2ccc(F)cc21` (stereo not given), the values for the Activity with HT-29 [3] and in the assay on HT-29 [4] were 50% and 83%, respectively. The TGI in the assay with HT-29 [5] stood at 90%. On to `CCOP(=O)(OCC)OCCCCNC(=O)C(C)c1ccc(CC(C)C)cc1` (stereo not given), for which the Activity with A549 is >95%. Turning to `CCOP(=O)(OCC)OCC(CNC(=O)C(C)c1ccc(CC(C)C)cc1)OP(=O)(OCC)OCC` (stereo not given), in the assay with U-118-MG, the inhibition in vivo at 20 mg/kg came out at 77%. As for `CCOP(=O)(OCC)OCC(COC(=O)c1ccccc1OC(C)=O)OP(=O)(OCC)OCC` (stereo not given), the inhibition at 100 mg/kg in the assay on Mus musculus was 83%. The TGI in the assay on PANC-1 is reported as 78%. As for `NCCCC(N)(C(=O)O)C(F)F` (stereo not given) [EFLORNITHINE], the TGI in the assay with A-431 was found to be 90%.
